Patent US20210378934A1, “HAIR CARE ACTIVE AGENT” (GIVAUDAN SA, priority 2018, published 2021)
In brackets after ≈: the same amount, converted by molar mass. Where two headings read alike, the source gives them in different places. Blank lines part the entries; values can stand above or below the compound they belong to.

Key:
melanogenesis = settings: Sang Mi An et al. Phytother. Res. 22, 1200-1207 (2008); cited from earlier work
Solubility = format: physicochemical
[1] = tested on: co-culture of Normal Human Epidermal Keratinocytes (NHEKs) and Normal Human Melanocytes (NHMs); assay: Melanin production in NHK/NHM co-culture: comparison (Example 7); format: cell-based; settings: 5 days; for effect on melanin synthesis / melanin content (in words): taxifolin glucoside 0.13 μg/mL alone, + N-acetyl tyrosine 15 μg/mL or + L-tyrosine 15 μg/mL
Excerpt: The aim of this study was to compare the effect of the hair care active agent of the present invention, which comprises taxifolin glucoside and N-acetyl tyrosine, with those of L-tyrosine (positive reference), of taxifolin glucoside, and of a mixture of taxifolin glucoside and L-tyrosine. The model used for this comparison was a co-culture of Normal Human Epidermal Keratinocytes (NHEKs) and Normal Human Melanocytes (NHMs).
The cell culture was realized with primary cells isolated from human skin biopsies.
Normal Human Keratinocytes (NHKs) were seeded at 60000 cells per well in 6-wells plates pre-coated with collagen I. 4 hours later, Normal Human Melanocytes (NHMs) were seeded at 60 000 cells per well in the same 6-wells plates. The cells were incubated for 48 hours in complete medium (EpiLife® supplemented with HKGS=Human Kerationcyte Growth Supplement).
After 48 hours of culture, the cells were stimulated for 5 days with the following compositions: • L-tyrosine at 450 μg/mL (Sigma) • Taxifolin glucoside at 0.13 μg/mL • Taxifolin glucoside at 0.13 μg/mL+N-acetyl tyrosine at 15 μg/mL (similar to Example 1) • Taxifolin glucoside at 0.13 μg/mL+L-tyrosine at 15 μg/mL (Sigma)
The compositions were diluted in a basal medium without supplements (EpiLife®). Every 2 days, the treatments were renewed.
After 5 days of treatment, cells were rinsed off with PBS. Then, in each well, 200 μL of a 0.5N NaOH solution was added. The cell lysates were collected in 1.5 mL microtubes with secure caps. In parallel, a standard range of melanin was prepared (1000 μg/mL). Microtubes of samples and standard range were heated for 1 hour at 80° C. in a dry bath. After the heating, 100 μL of each sample was transferred to a 96-wells plate.
Optical density was measured at 405 nm to determine the melanin content. […]
If it was not significant, the data was evaluated with statistical parametric tests (ANOVA followed by Dunnett's multiple comparisons test).
If it was significant, the data was evaluated with statistical non parametric tests (ANOVA of Kruskall-Wallis followed by a Mann-Whitney U test).

[2] = tested on: melanocytes and melanoblasts in Anagen VI human hair follicles; assay: NKI/beteb melanocyte quantification in micro-dissected hair follicles under oxidative stress (Example 5); format: cell-based; settings: cumene hydroperoxide oxidative stress
Experimental: Anagen VI human hair follicles (HFs) were dissected from the scalp (Donor). The HFs used were selected after 18 hours of pre-culture. The following parameters were evaluated in the selection procedure: growth rate (>0.18 mm/18 hours), morphology (no signs of dystrophy).
Starting from day 1, after the selection at day 0, the test compounds were dissolved in the culture medium and the HFs were cultured up to planned endpoints. Twelve hair follicles were used per treatment for each read out parameter. The culture medium was renewed every other day.
Total melanocytes quantification was obtained following NKI/beteb-DAPI double immunostaining of the cryo-sections. NKI/beteb antibody (#MON7006-1 by Monosan) recognizes a (pre-) melanosomal antigen present in all melanocytes (i.e. both active melanocytes and melanoblasts).
On the immunostained sections, image analysis was performed in order to quantify the number of NKI-beteb positive cells within each hair follicle. The obtained value was normalized relative to the total number of cells of the considered area.
Image analysis was performed using ImageJ software (NIH, USA).
All quantitative data was summarized in terms of the mean score, standard deviation and standard error of the mean for each treatment.
Differences between groups were evaluated by One-way ANOVA with permutation test followed by Tukey and t-test with permutation.

[3] = tested on: Anagen VI human hair follicles; assay: ROS evaluation (DCFH-DA) in micro-dissected hair follicles under cumene hydroperoxide stress (Example 5); format: cell-based; settings: 50 μM cumene hydroperoxide, 1 hour (oxidative stimulus)
Experimental: After the selection, the HFs were incubated for 1 hour with the standard solution from Example 1 dissolved in William's E medium. Afterwards, the HFs were cultured for 30 min in the presence of dichlorofluoerescein diacetate (DCFH-DA), a probe that reacts with ROS to become fluorescent. […] At the end of the experimental phase, the HFs were harvested, cryo-fixed and cut at the cryo-micro-tome for consequent image acquisition and image analysis of fluorescence within the sections. A slide for each HF was processed by image acquisition and related analysis (i.e. 12 images for each treatment). […]

solubility (Solubility; water with taxifolin glucoside, aqueous with cosolvent or surfactant or cyclodextrin, suitable amounts of taxifolin glucoside, molar ratio about 1:1, read-out: solubility of taxifolin in water in the presence of taxifolin glucoside): ≥ 20000 µg/mL
solubility (Solubility; water, typical, read-out: solubility of taxifolin in water): ~1000 µg/mL (≈ 3.29 mM)
Compound: O=C1c2c(O)cc(O)cc2O[C@H](c2ccc(O)c(O)c2)[C@H]1O [taxifolin]
effect on melanogenesis (in words) (melanogenesis): inhibit melanogenesis

Compound: Taxifolin glucoside
effect on melanin synthesis / melanin content (in words) [1]: not able to induce synthesis of melanin
effect on melanin synthesis / melanin content (in words) ([1]; listed as taxifolin glucoside): does not have any influence

Compound: N[C@@H](Cc1ccc(O)cc1)C(=O)O [L-tyrosine]
melanin content / synthesis of melanin, change compared to the untreated condition ([1]; L-tyrosine 450 μg/mL, taxifolin glucoside 0.13 μg/mL + N-acetyl tyrosine 15 μg/mL, p<0.001): +35%

Compound: cumene hydroperoxide
reduction of the number of melanocytes compared to the untreated condition [2]: 78%
increase of ROS production compared to the untreated condition [3]: +256%
